Laboratory results reported in patent US7314970B2, “Method for plant breeding” (priority 1997, dated 2008).

Key:
most plant species = most plant species (Franz, 1985), but not all; cited from earlier work
[1] = system: DK580 and DK626 BC4 hybrids of FI117, GA21, GG25 and GJ11; experiment: Effect of glyphosate application on growth and fertility of DK580 and DK626 hybrids (field test); assay type: in vivo, maize
Excerpt: BC4 hybrids of DK580 and DK626 were produced containing one of the FI117, GA21, GG25 or GJ11 transformation events as described in example 14. Comparisons of the effect of glyphosate application on growth (mean extended leaf height) and male fertility was compared at both the V4 and V8 developmental stage. The developmental scale that was used to rate the corn plants is well known in the art, and is described in Special Report No. 48, Iowa State University of Science and Technology, Cooperative Extension Service, Ames, Iowa. Each of the hybrids was studied at both the V4 and V8 stage using 0× glyphosate (i.e. water only), 1× glyphosate, or 4× glyphosate (the 1× level corresponds to 16 ounces/acre of ROUNDUP ULTRA™).
Tests were designed as four row, 3 rep., split-split-plot with main plots as hybrids, subplots as transformant sources (i.e. GA21, GG25, FI117, and GJ11) and subplots as timing/rate combinations […]. Statistical methods for design and analysis of data derived from experimental field plots are described in Gomez and Gomez, (1984). Tests were conducted in Dekalb, Ill., and Thomasboro, Ill. during 1996. All rows were planted at double normal planting density, i.e., 60 seeds per row, because hybrids segregated 1:1 for the glyphosate resistance trait. Sprayed plants were thinned to 30 plants per row no sooner than 7 days after application of Roundup at a time when Roundup susceptible plants could be identified. Unsprayed plots were thinned to 30 plants per row at the same time. At 5-10 days after herbicide application, the following data was collected in each row: number of dead plants, number of damaged plants, and number of normal plants. After thinning, the mean extended leaf height was measured on 10 resistant plants per plot. During the remainder of the growing season the following agronomic data was collected: early stand count, seedling vigor, final stand count, plant height, ear height, intactness, stay green, number of barren plants, number of male-sterile plants, number of dropped ears, number of root lodged plants, number of stalks lodged plants, shelled grain weight, per cent grain moisture at harvest, and test weight.

[2] = system: DK580 and DK626 hybrids of FI117, GA21, GG25 and GJ11; experiment: Yield effect of glyphosate application on DK580 and DK626 hybrids (field test); assay type: in vivo, maize
Protocol: Tests were designed as four row, 3 rep., split-split-plot with main plots as hybrids, subplots as transformant sources (i.e. GA21, GG25, FI117, and GJ11) and subplots as timing/rate combinations […]. Statistical methods for design and analysis of data derived from experimental field plots are described in Gomez and Gomez, (1984). Tests were conducted in Dekalb, Ill., and Thomasboro, Ill. during 1996. All rows were planted at double normal planting density, i.e., 60 seeds per row, because hybrids segregated 1:1 for the glyphosate resistance trait. Sprayed plants were thinned to 30 plants per row no sooner than 7 days after application of Roundup at a time when Roundup susceptible plants could be identified. Unsprayed plots were thinned to 30 plants per row at the same time. […] After thinning, the mean extended leaf height was measured on 10 resistant plants per plot. […]
Four DK580 and four DK626 hybrids, each containing a different mutant EPSPS transgene from one of the GA21, FI117, GJ11 or GG25 transformation events, were field tested for possible effects on yield with glyphosate application as described in Example 12, with treatments as shown in FIG. 13. […] Data were analyzed using the SAS PROC MIXED and PROC SUM procedures. […]

Row | Structure (SMILES) | phytotoxicity relative to glyphosate (most plant species) | male fertility ([1]; all 4 GA21 treatments) | resistance to glyphosate (mean extended leaf height) ([1]; all 4 transformation events, 1× and 4× application levels (1× = 16 ounces/acre ROUNDUP ULTRA)) | male fertility ([1]; application at V4 stage, all plants) | male fertility ([1]; application at V8 stage, only GJ11 and GJ25 treatments) | effect on yield ([2]; DK580 hybrids, glyphosate applied at V4 stage) | effect on yield ([2]; DK626 hybrids with GA21 or FI117, V8 stage, 4× rate)
1 | NCP(=O)(O)O [AMPA, aminomethylphosphonate] | much less phytotoxic than glyphosate | – | – | – | – | – | –
2 | O=C(O)CNCP(=O)(O)O [glyphosate, N-phosphonomethyl-glycine] | – | male-fertile plants | significant resistance | male-fertile | male sterile plants | significant decreases in yield are not observed for 3 of the 4 DK580 hybrids | no significant loss in yield
